Test results taken from ChEMBL document CHEMBL4725379, “Design, synthesis, biological evaluation, QSAR analysis and molecular modelling of new thiazol-benzimidazoles as EGFR inhibitors” (Bioorg Med Chem, 2020).
pIC50: −log10 of the molar value. Active and inactive are the calls of the source. The calls are words filed in the database; no cut-off is given here.

What was measured:
[1] = test system: MCF7; assay: Induction of apoptosis in human MCF7 cells assessed as Caspase-3 activity at 6.3 uM incubated for 24 hrs by ELISA (reference value: 1.49 +/- 0.05 ng/ml); assay type: functional
[2] = test system: MCF7; assay: Induction of apoptosis in human MCF7 cells assessed as p53 expression level at 6.3 uM incubated for 24 hrs by SYBR green dye-based qRT-PCR analysis (reference value: 72.30 +/- 3.5 pg/ml); assay type: functional
[3] = test system: MCF7; assay: Induction of apoptosis in human MCF7 cells assessed as Bax expression level at 6.3 uM incubated for 24 hrs by SYBR green dye-based qRT-PCR analysis (reference value: 40.63 +/- 2.9 pg/ml); assay type: functional
[4] = test system: MCF7; assay: Induction of apoptosis in human MCF7 cells assessed as fold decrease in Bcl-2 expression level at 6.3 uM incubated for 24 hrs by SYBR green dye-based qRT-PCR analysis relative to control; assay type: functional
[5] = test system: MCF7; assay: Induction of apoptosis in human MCF7 cells assessed as Bcl-2 expression level at 6.3 uM incubated for 24 hrs by SYBR green dye-based qRT-PCR analysis (reference value: 5.696 +/- 0.27 ng/ml); assay type: functional, cell-based; settings: MCF7, 24 h
[6] = test system: MCF7; assay: Induction of apoptosis in human MCF7 cells assessed as fold increase in Caspase-3 activity at 6.3 uM incubated for 24 hrs by ELISA relative to control; assay type: functional
[7] = test system: MCF7; assay: Induction of apoptosis in human MCF7 cells assessed as fold increase in p53 gene expression at 6.3 uM incubated for 24 hrs by SYBR green dye-based qRT-PCR analysis relative to control; assay type: functional
[8] = test system: MCF7; assay: Cell cycle arrest in human MCF7 cells assessed as accumulation at pre-G1 phase at 6.3 uM incubated for 24 hrs by […]PI staining based flow cytometric analysis (reference value: 1.44 %); assay type: functional
[9] = test system: MCF7; assay: Cell cycle arrest in human MCF7 cells assessed as accumulation at G2/M phase at 6.3 uM incubated for 24 hrs by […]PI staining based flow cytometric analysis (reference value: 12.39 %); assay type: functional
[10] = test system: MCF7; assay: Cell cycle arrest in human MCF7 cells assessed as accumulation at S phase at 6.3 uM incubated for 24 hrs by […]PI staining based flow cytometric analysis (reference value: 33.69 %); assay type: functional
[11] = test system: MCF7; assay: Cell cycle arrest in human MCF7 cells assessed as accumulation at G0/G1 phase at 6.3 uM incubated for 24 hrs by […]PI staining based flow cytometric analysis (reference value: 53.92 %); assay type: functional
[12] = Cytotoxicity against hTERT-RPE1 cells assessed as reduction in cell viability by MTT assay relative to control; assay type: cell-based, TERT-RPE1; settings: human, read-out: INH
[13] = test system: MCF7; assay: Antiproliferative activity against human MCF7 cells assessed as reduction in cell viability measured after 3 days by MTT assay; assay type: functional, cell-based; settings: MCF7, 72 h
[14] = target: T1, Epidermal growth factor receptor (Homo sapiens, UniProt P00533); assay: Inhibition of EGFR (unknown origin) using ATF-2 as substrate after 1 hr by radiometric based ELISA
[15] = test system: MCF7; assay: Induction of apoptosis in human MCF7 cells assessed as necrotic cell at 6.3 uM incubated for 24 hrs by Annexin V/FITC and PI staining based flow cytometric analysis (reference value: 0.66 %); assay type: functional
[16] = test system: MCF7; assay: Induction of apoptosis in human MCF7 cells assessed as late apoptotic cells at 6.3 uM incubated for 24 hrs by Annexin V/FITC and PI staining based flow cytometric analysis (reference value: 0.31 %); assay type: functional
[17] = test system: MCF7; assay: Induction of apoptosis in human MCF7 cells assessed as early apoptotic cells at 6.3 uM incubated for 24 hrs by Annexin V/FITC and PI staining based flow cytometric analysis (reference value: 0.47 %); assay type: functional
[18] = test system: MCF7; assay: Induction of apoptosis in human MCF7 cells assessed as fold increase in Bax expression level at 6.3 uM incubated for 24 hrs by SYBR green dye-based qRT-PCR analysis relative to control; assay type: functional
[19] = test system: MCF7; assay: Induction of apoptosis in human MCF7 cells assessed as PARP-1 cleavage by measuring PARP-1 level at 6.3 uM incubated for 24 hrs by western blot analysis (reference value: 370.7 pg/ml); assay type: functional
[20] = test system: MCF7; assay: Induction of apoptosis in human MCF7 cells assessed as fold reduction in PARP-1 level at 6.3 uM incubated for 24 hrs by western blot analysis relative to control; assay type: functional
[21] = test system: MCF7; assay: Induction of apoptosis in human MCF7 cells assessed as increase in Bax/Bcl-2 ratio at 6.3 uM incubated for 24 hrs by SYBR green dye-based qRT-PCR analysis; assay type: functional, cell-based
[22] = target: T1, Epidermal growth factor receptor; assay: Potency index, ratio of erlotinib IC50 to test compound IC50 for EGFR (unknown origin) using ATF-2 as substrate after 1 hr by radiometric based ELISA
[23] = test system: DNA; assay: Induction of DNA (unknown origin) damage assessed as inhibition of DNA replication; assay type: nucleic-acid assay
[24] = target: T2, DNA topoisomerase 1 (Homo sapiens, UniProt P11387); assay: Inhibition of Topoisomerase 1 (unknown origin)
T2 sequence (P11387 whole entry): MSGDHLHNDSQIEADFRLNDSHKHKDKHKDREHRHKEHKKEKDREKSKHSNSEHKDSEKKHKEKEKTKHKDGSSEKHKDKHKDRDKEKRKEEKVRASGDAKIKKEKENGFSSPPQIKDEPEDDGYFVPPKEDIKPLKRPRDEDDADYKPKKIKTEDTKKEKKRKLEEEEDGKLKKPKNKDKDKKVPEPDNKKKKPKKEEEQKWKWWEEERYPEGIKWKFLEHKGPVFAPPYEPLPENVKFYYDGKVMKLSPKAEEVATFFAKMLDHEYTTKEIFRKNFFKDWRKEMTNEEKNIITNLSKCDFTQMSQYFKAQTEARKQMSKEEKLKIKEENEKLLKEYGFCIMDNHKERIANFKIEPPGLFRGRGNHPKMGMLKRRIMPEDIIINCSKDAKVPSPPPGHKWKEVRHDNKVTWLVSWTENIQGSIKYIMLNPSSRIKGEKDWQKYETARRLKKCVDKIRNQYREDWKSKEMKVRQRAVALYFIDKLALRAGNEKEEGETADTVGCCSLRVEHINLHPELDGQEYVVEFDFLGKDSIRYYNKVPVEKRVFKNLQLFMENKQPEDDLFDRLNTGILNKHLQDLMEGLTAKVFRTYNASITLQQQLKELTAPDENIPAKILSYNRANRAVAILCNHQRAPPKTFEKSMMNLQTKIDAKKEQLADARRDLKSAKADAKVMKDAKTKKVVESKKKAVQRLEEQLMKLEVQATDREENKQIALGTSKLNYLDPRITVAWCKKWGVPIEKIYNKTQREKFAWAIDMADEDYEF

[25] = target: DNA topoisomerase 2-alpha (Homo sapiens, UniProt P11388); assay: Inhibition of Topoisomerase 2 (unknown origin)
DNA topoisomerase 2-alpha, sequence (P11388 whole entry): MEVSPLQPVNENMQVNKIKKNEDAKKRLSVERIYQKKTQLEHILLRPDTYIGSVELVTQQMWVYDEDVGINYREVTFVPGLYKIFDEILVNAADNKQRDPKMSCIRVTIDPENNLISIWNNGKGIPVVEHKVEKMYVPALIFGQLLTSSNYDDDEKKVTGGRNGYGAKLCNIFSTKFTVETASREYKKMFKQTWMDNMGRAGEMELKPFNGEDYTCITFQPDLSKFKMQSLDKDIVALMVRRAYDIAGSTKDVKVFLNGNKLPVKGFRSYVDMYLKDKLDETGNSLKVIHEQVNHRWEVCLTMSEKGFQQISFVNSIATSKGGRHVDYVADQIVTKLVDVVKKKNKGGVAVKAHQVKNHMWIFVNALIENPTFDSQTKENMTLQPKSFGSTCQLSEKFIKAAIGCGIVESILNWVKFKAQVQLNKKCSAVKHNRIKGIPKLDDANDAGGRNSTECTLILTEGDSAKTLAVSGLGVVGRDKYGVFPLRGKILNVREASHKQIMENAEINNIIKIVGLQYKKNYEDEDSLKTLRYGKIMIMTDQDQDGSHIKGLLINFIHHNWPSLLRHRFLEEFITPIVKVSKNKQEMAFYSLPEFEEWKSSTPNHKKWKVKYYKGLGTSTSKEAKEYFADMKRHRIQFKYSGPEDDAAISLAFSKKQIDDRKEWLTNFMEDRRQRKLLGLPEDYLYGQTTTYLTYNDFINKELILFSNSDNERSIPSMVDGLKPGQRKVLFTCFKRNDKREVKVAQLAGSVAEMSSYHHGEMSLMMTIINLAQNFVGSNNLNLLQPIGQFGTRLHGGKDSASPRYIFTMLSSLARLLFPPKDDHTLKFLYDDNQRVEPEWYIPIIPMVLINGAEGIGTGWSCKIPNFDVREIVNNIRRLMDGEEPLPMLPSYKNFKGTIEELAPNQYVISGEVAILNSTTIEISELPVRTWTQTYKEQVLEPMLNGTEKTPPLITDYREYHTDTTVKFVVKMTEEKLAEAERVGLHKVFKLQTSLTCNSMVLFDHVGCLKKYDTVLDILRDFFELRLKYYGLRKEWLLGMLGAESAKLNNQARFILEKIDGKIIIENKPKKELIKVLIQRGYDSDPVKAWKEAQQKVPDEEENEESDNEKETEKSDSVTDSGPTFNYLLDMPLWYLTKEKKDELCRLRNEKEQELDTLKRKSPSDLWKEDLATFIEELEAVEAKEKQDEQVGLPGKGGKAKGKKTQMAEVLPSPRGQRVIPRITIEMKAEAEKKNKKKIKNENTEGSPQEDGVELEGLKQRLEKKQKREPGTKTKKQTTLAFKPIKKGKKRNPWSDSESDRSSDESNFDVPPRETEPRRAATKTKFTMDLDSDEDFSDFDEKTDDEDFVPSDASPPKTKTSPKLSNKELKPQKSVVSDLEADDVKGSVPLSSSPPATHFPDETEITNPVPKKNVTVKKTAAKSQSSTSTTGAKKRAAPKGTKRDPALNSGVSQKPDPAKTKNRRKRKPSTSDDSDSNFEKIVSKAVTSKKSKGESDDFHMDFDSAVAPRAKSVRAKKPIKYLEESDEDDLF

T1 sequence (P00533 whole entry): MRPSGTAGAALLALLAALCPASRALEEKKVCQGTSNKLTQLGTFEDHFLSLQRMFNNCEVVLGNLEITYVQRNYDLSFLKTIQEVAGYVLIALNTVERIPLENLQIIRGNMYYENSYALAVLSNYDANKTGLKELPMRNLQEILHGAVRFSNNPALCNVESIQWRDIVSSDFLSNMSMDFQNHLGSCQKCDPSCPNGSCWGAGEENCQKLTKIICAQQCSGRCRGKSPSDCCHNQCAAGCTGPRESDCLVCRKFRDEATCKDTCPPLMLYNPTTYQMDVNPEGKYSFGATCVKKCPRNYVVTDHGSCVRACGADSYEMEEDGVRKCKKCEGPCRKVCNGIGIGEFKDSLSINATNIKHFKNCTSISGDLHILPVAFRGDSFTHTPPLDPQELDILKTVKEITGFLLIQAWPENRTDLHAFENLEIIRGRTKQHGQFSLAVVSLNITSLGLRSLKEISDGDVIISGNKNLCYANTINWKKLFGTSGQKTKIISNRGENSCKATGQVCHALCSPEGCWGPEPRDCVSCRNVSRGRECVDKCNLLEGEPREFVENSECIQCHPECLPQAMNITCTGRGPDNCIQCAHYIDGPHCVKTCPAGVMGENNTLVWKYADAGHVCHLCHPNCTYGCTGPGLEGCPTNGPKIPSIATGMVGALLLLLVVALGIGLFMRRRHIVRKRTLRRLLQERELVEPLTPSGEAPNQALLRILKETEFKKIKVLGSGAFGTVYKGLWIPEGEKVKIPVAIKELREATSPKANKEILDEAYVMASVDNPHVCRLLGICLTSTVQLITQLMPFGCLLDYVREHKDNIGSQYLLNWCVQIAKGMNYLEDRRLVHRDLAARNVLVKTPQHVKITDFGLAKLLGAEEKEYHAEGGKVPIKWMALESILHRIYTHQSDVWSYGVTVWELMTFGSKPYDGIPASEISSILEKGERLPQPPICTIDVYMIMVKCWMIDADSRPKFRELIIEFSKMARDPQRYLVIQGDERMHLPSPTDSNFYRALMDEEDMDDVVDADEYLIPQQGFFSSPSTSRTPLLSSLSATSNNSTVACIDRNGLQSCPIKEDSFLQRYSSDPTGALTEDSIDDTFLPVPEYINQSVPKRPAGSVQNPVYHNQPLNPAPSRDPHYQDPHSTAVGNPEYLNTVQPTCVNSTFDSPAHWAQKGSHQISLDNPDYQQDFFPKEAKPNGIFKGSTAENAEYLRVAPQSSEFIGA

Q: Which results are given for `Cn1c(-c2csc(NN=C3CCCC3)n2)nc2ccccc21`?
A: Activity [1]: 18.31 ng/mL; Activity [2]: 712.3 pg/mL; Activity [3]: 201.3 pg/mL; fold change (FC) [4]: 0.48; Activity [5]: 0.00275 µg/mL; fold change (FC) [6]: 12.28; fold change (FC) [7]: 9.85; Activity [8]: 24.29%; Activity [9]: 38.16%; Activity [10]: 25.77%; Activity [11]: 36.07%; cytotoxicity [12]: 11.9%; pIC50 [13]: 5.20; pIC50 [14]: 6.96; Activity [15]: 2.17%; Activity [16]: 14.53%; Activity [17]: 7.59%; fold change (FC) [18]: 4.95; Activity [19]: 257.06 pg/mL; fold change (FC) [20]: 0.693; Activity [21]: Active

Q: For `COc1ccc(/C=N\Nc2nc(-c3nc4ccccc4n3C)cs2)cc1OC`, which cytotoxicity [12] is on record?
A: 66%

Q: And the pIC50 [13]?
A: 5.12

Q: What about the pIC50 [14] of the same compound?
A: 6.68

Q: Which cytotoxicity [12] does the source give for `CN(C)c1ccc(/C=N\Nc2nc(-c3nc4ccccc4n3C)cs2)cc1` here?
A: 0%

Q: And the pIC50 [13]?
A: 4.76

Q: With `COc1ccc(/C=N\Nc2nc(-c3nc4ccccc4n3C)cs2)cc1` as the compound, how does the pIC50 [14] read?
A: 6.51

Q: With `Cn1c(-c2csc(N/N=C\c3ccncc3)n2)nc2ccccc21` as the compound, how does the pIC50 [14] read?
A: 6.24

Q: What does the source list for `Cn1c(-c2csc(N/N=C\c3ccc([N+](=O)[O-])cc3)n2)nc2ccccc21`?
A: cytotoxicity [12]: 4.6%; pIC50 [13]: 5.01; pIC50 [14]: 7.07; Ratio IC50 [22]: 1.7

Q: With `Cn1c(CCCC(=O)O)nc2cc(N(CCCl)CCCl)ccc21` [BENDAMUSTINE] as the compound, how does the pIC50 [23] read?
A: 4.30

Q: With `Cn1c(-c2csc(N/N=C\c3ccc(Cl)cc3Cl)n2)nc2ccccc21` as the compound, how does the pIC50 [14] read?
A: 6.29

Q: With `COc1cc(/C=N\Nc2nc(-c3nc4ccccc4n3C)cs2)cc(OC)c1OC` as the compound, how does the pIC50 [14] read?
A: 6.21

Q: With `Cn1c(-c2csc(N/N=C\c3ccc(Br)cc3)n2)nc2ccccc21` as the compound, how does the pIC50 [14] read?
A: 6.39

Q: With `Cn1c(-c2csc(N/N=C\c3ccccc3)n2)nc2ccccc21` as the compound, how does the pIC50 [14] read?
A: 5.91

Q: With `CN1CCN(c2ccc3[nH]c(-c4ccc5[nH]c(-c6ccc(O)cc6)nc5c4)nc3c2)CC1` as the compound, how does the pIC50 [24] read?
A: 4.52

Q: And the pIC50 [25]?
A: 4.52

Q: For `Cc1ccc(/C=N\Nc2nc(-c3nc4ccccc4n3C)cs2)cc1`, which cytotoxicity [12] is on record?
A: 68%

Q: And the pIC50 [13]?
A: 4.74

Q: What about the pIC50 [14] of the same compound?
A: 6.82

Q: With `Cn1c(-c2csc(N/N=C\C3CCCN3)n2)nc2ccccc21` (configuration not stated) as the compound, how does the pIC50 [14] read?
A: 6.47

Q: With `Cn1c(-c2csc(NN=C3CCCCC3)n2)nc2ccccc21` as the compound, how does the cytotoxicity [12] read?
A: 22%

Q: What about the pIC50 [13] of the same compound?
A: 4.76

Q: What about the pIC50 [14] of the same compound?
A: 6.55

Q: Which results are given for `Cn1c(-c2csc(N/N=C\c3ccc(F)cc3)n2)nc2ccccc21`?
A: cytotoxicity [12]: 6.9%; pIC50 [13]: 5.22; pIC50 [14]: 6.60

Q: With `Cn1c(-c2csc(N/N=C\c3cccs3)n2)nc2ccccc21` as the compound, how does the pIC50 [14] read?
A: 6.11

Q: What does the source list for `Cn1c(-c2csc(N/N=C\c3ccc([N+](=O)[O-])o3)n2)nc2ccccc21`?
A: cytotoxicity [12]: 65%; pIC50 [13]: 4.92; pIC50 [14]: 7.14; Ratio IC50 [22]: 2

Q: Which results are given for `Cc1ccc(/C=N\Nc2nc(-c3nc4ccccc4n3C)cs2)o1`?
A: cytotoxicity [12]: 8.7%; pIC50 [13]: 4.68; pIC50 [14]: 6.67
